Assay results as given in publication PMC6105804, “In Vitro and In Vivo Evaluation of APX001A/APX001 and Other Gwt1 Inhibitors against Cryptococcus” (Antimicrobial Agents and Chemotherapy, 2018).
“And” between values parts separate entries of the source, which are not always exact repeats. Equal entries are not always repeated.

How the values were obtained:
[1] = set-up: method as in ref 11, 12 = [11]; 11. Hodges MR , Ople E , Shaw KJ , Mansbach RS , van Marle S , van Hoogdalem E , Kramer W , Wedel P 2017 Phase 1 study to assess safety, tolerability and pharmacokinetics of single and multiple oral d || [12]; 12. Hodges MR , Ople E , Shaw KJ , Mansbach RS , van Marle S , van Hoogdalem E , Wedel P , Kramer W 2017 First-in-human study to assess safety, tolerability and pharmacokinetics of APX001 administered; settings: cited from earlier work
C. neoformans strain H99 [2] = assay: Murine cryptococcal meningitis model with ABT pretreatment (preliminary experiment); assay type: in vivo, Cryptococcus neoformans
Method: In a preliminary experiment, the efficacies of APX001, APX2096, and APX2097 were evaluated in the disseminated model of CM (n = 5 mice/cohort). ABT at 100 mg/kg was administered orally to male CD-1 mice 2 h prior to APX compound administration. Mice were injected with 6.9 × 10^4 CFU of C. neoformans strain H99 per mouse via the lateral tail vein at time zero. Treatment with each prodrug was initiated at about 1 h postinfection by i.p. administration and continued daily for 7 days, with 100-mg/kg ABT being administered orally 2 h prior to each APX compound dose.
(§1) ABT at 100 mg/kg was administered orally to male CD-1 mice at 2 h prior to each APX compound dose. Mice were injected with 6.9 × 10^4 CFU of C. neoformans strain H99 per mouse via the lateral tail vein at time zero. Treatment with the APX compound was initiated at about 1 h postinfection by i.p. administration and continued for 7 days, with 100-mg/kg ABT being administered orally 2 h prior to each APX compound dose. […] Fungal burden data were log10 transformed and evaluated using Kruskal-Wallis tests with Dunn's multiple-comparison test for post hoc analysis (Prism software, v5; GraphPad Software, Inc., San Diego, CA). A P value of ≤0.05 was considered statistically significant (*, P ≤ 0.05; **, P ≤ 0.01). The 95% confidence interval (CI) is presented.
(§2) C. neoformans strain H99 was grown in yeast extract-peptone-dextrose broth at 30°C on a shaker (220 rpm) for 24 h, centrifuged (1,980 relative centrifugal force), and washed twice in phosphate-buffered saline (PBS), resuspended in PBS, and quantified by hemacytometric count. Male CD-1 mice were infected with ∼5 × 10^4 CFU per mouse via lateral tail vein injection of 100 μl. Mice were weighed, and treatment was begun within 1 h after infection. Treatments were administered daily for 7 days. Mice were weighed daily and observed for acute and chronic adverse symptoms. Mice were sacrificed on day 8, and the brain and left lung were homogenized and cultured for quantitative determination of the tissue burden (number of CFU per gram of tissue). Tissues were homogenized for 25 s in 1 ml phosphate-buffered saline using two 6.5-mm steel beads and a Mini-Beadbeater 16 apparatus (Biospec Products, Inc., Bartlesville, OK) and serially diluted in 10-fold steps. Aliquots (100 μl) of homogenate were plated and incubated for 3 to 7 days at 37°C. Fungal burden data were log10 transformed and evaluated using Kruskal-Wallis tests with Dunn's multiple-comparison test for post hoc analysis (Prism software, v5; GraphPad Software, Inc., San Diego, CA). A P value of ≤0.05 was considered statistically significant.

[3] = Acute toxicity and survival observed in the CM model with ABT; assay type: in vivo, mouse; settings: n = 5 mice/cohort; 7 days i.p. + ABT
Method: as §1, §2

C. albicans = tested on: C. albicans; set-up: method as in ref 23 = [23]; 23. Zhao Y , Lee M , Lee A , Paderu P , Park S , Perlin DS 2018 APX001 is effective against echinocandin and multi-drug resistant Candida isolates . Abstr 28th ECCMID , Madrid, Spain .; settings: after ABT administration, after 48 h; cited from earlier work
[4] = Source text: For pharmacokinetic and efficacy studies, the prodrugs APX001, APX2096, APX2097, and APX2104 (Amplyx Pharmaceuticals) were used. […] The prodrugs APX2096, APX2097, and APX2104 were formulated similarly to enable oral and i.p. dosing of compounds for pharmacokinetic and efficacy studies.
C. neoformans strain H99 [5] = assay: Murine model of cryptococcal meningitis, APX001 alone and with FLC (no ABT); assay type: in vivo, Cryptococcus neoformans
Method: The efficacies of APX001 and FLC were evaluated in a well-established mouse CM model ([34]). Since Cryptococcus infections can be hematogenously disseminated to other organs, the numbers of CFU in both lung and brain tissue were evaluated. Male CD-1 mice were infected with 5.9 × 10^4 CFU of C. neoformans strain H99 via lateral tail vein injection. Mice were assigned to four groups (n = 10), consisting of (i) treatment with APX001, (ii) treatment with APX001 plus FLC, (iii) treatment with FLC, or (iv) no treatment as a control. Treatment was initiated within 1 h after infection. APX001 was administered by oral gavage at a dose of 390 mg/kg thrice daily (TID), with each dose being administered roughly 8 h apart. […] FLC (2 mg/ml; Sagent Pharmaceuticals, Schaumburg, IL) was administered at a dose of 80 mg/kg/day intraperitoneally (i.p.).
Brain and lung burdens in mice were measured at 7 days postinfection with C. neoformans H99. Male CD-1 mice were infected with 5.9 × 10^4 CFU of C. neoformans strain H99 via the lateral tail vein. Treatment was initiated at about 1 h postinfection and continued for 7 days. APX001 was administered by oral gavage at a dose of 390 mg/kg thrice daily, with each dose being administered roughly 8 h apart. FLC (2 mg/ml; Sagent Pharmaceuticals, Schaumburg, IL) was administered at a dose of 80 mg/kg/day i.p. once daily. Fungal burden data were log10 transformed and evaluated using Kruskal-Wallis tests with Dunn's multiple-comparison test for post hoc analysis (Prism software, v5; GraphPad Software, Inc., San Diego, CA). A P value of ≤0.05 was considered statistically significant (*, P ≤ 0.05; **, P ≤ 0.01; ***, P ≤ 0.001). The 95% confidence interval (CI) is presented.
as §2

[6] = 80 mg/kg in the presence of ABT
[7] = 85 mg/kg QD i.p. + ABT 100 mg/kg p.o., 7 days
[8] = APX001 390 mg/kg TID oral plus FLC 80 mg/kg/day i.p., 7 days
[9] = monotherapy 7 days, APX001 390 mg/kg TID oral gavage, FLC 80 mg/kg/day i.p., male CD-1 mice

Nc1c(-c2cc(Cc3ccc(COc4ccccn4)cc3)no2)ccc[n+]1COP(=O)([O-])O [APX001]
bioavailability ([1]; phase 1 clinical trials): > 90%
half-life in humans ([1]; phase 1 studies in healthy volunteers): 60 h
reduction in lung fungal burden (C. neoformans strain H99 [2]; 34 mg/kg QD i.p. + ABT 100 mg/kg p.o., 7 days): neither the 34-mg/kg nor the 85-mg/kg dose of APX001 achieved a statistically significant reduction
reduction in brain fungal burden (C. neoformans strain H99 [2]; [6]): 0.85 log10 CFU/g
reduction in lung fungal burden (C. neoformans strain H99 [2]; [6]): 0.9 log10 CFU/g
reduction in brain fungal burden (C. neoformans strain H99 [2]; [7]): 0.85 log10 CFU/g
reduction in lung fungal burden (C. neoformans strain H99 [2]; [7]): neither the 34-mg/kg nor the 85-mg/kg dose of APX001 achieved a statistically significant reduction
final numbers of surviving mice [3]: 5
reduction of C. albicans kidney burdens (C. albicans): 6.0 ± 0.1 log10 CFU/g kidney tissue
solubility in water [4]: soluble in water
reduction in brain fungal burden vs untreated control, combination of APX001 and FLC (C. neoformans strain H99 [5]; [8]): 3.52 log10 CFU/g and 3.51 log10 CFU/g
reduction in lung fungal burden vs untreated control, combined therapy (C. neoformans strain H99 [5]; [8]): 1.84 log10 CFU/g
reduction in brain fungal burden vs untreated control (C. neoformans strain H99 [5]; [9]): 0.78 log10 CFU/g
reduction in lung fungal burden vs untreated control (C. neoformans strain H99 [5]; [9]): 1.50 log10 CFU/g and 1.5 log10 CFU/g
